“Also recorded” adds a separate entry of the source. Where two headings read alike, the source gives them in different places.
Legend:
mCB1R = mCB1R (Mus musculus (Mouse), UniProt P47746); assay: [3H]CP-55,940 competition displacement binding, crude membranes from mouse brain
Procedure: (§1) Affinity for Cannabinoid Receptors. The compounds were further characterized using a radioligand binding assay to determine their affinities for CB1R and CB2R based on each test compound's ability to displace the radiolabeled CB1R/CB2R agonist CP-55,940 from membranes prepared from a mouse brain (a source of CB1R) and membranes of cells expressing the human CB2R. […] Therefore, the compounds were assayed using membranes from CHO-K1 cells expressing the human CB2R (hCB2R).
(§2) Membranes from cells expressing human CB2R were purchased from Charles River, (Cat #A308; Ohio, US). Solutions of test compounds ranging from 0.1 nM to 10 mM were prepared in DMSO. The desired amount of membrane preparation was diluted with ice-cold assay buffer (50 mM Tris-HCl, 2.5 mM EDTA, 5 mM MgCl2, 0.1% BSA, pH 7.4) and was vortexed. […] The assays were incubated for 90 minutes at 30° C. and then immediately filtered on WHATMAN GF/B FilterPaper (Fired) using a Brandel M-24R Harvester followed by six washes with ice cold wash buffer (50 mM Tris-HCl, 2.5 mM EDTA, 5 mM MgCl2, 0.1% BSA, pH 7.4). Radioactivity was detected by adding the FilterPaper directly to the ULTIMA GOLD scintillation cocktail (PerkinElmer), incubation at 20° C. for 60 min and then counted using a Tri-Carb 4910TR liquid scintillation counter.

hCB2R [1] = target: T1, hCB2R (Homo sapiens (Human), UniProt P34972); assay: [3H]CP-55,940 competition displacement binding, membranes of CHO-K1 cells expressing human CB2R
T1 sequence (P34972 whole entry): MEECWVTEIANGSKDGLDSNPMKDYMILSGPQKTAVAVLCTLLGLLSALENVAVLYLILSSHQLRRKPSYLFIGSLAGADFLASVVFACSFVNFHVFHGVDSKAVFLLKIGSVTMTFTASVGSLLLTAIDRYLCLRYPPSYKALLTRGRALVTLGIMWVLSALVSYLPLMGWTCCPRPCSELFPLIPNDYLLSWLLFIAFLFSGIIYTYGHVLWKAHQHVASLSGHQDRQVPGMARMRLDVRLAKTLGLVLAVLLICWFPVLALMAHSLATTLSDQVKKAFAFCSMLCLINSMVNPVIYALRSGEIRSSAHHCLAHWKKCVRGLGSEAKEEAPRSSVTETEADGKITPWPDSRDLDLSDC
Procedure: as §1, §2

hCB2R [2] = target: T1, hCB2R; assay: [35S]GTPγS binding assay, hCB2R CHO cell membranes; type: biochemical; details: for functional activity at hCB2R (agonist / inverse agonist): [35S]GTPγS binding; for EC50: [35S]GTPγS binding to hCB2R, two independent experiments in triplicate; for E(max) %: percentage of HU-308 response at 1 μM
Procedure: Functional Characterization.
The method used for measuring agonist-stimulated binding of [^35S]GTPγS was based on a described protocol. The assays were carried out with GTPγS assay buffer (50 mM Tris HCl (pH 7.4), 0.2 mM EGTA, 9 mM MgCl2, 150 mM NaCl, 1 mg/ml BSA). Briefly, membranes (5 μg protein) were incubated in assay buffer containing 100 μM GDP, 0.05 nM [^35S]GTPγS, test compounds at various concentrations in siliconized glass tubes. Bound ligand was separated from free ligand by vacuum filtration. Nonspecific binding was determined using 10 μM GTPS. Basal binding was assayed in the absence of the ligand and in the presence of GDP.

[3] = >10 μM = Displacement of radioactive ligand detected at high concentrations competing ligand, read-out: Ki mCB1R
[4] = displacement of [3H]CP-55,940, NB = No binding detected at concentrations up to 10 μM, read-out: Ki (nM) mCB1R

mCB1R, sequence (P47746 whole entry): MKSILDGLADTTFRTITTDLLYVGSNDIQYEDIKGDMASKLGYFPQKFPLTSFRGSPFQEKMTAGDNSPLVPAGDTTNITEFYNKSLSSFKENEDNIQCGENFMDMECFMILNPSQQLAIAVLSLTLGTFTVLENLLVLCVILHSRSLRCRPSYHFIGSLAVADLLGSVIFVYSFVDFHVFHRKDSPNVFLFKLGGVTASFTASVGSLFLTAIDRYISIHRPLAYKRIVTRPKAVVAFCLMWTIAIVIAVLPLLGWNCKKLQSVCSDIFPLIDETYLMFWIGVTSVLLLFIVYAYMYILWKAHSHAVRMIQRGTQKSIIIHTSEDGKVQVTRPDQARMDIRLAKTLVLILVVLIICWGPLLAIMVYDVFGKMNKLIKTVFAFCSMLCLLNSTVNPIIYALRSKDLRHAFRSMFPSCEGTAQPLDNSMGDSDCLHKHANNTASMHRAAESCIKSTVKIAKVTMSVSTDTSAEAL

Compound	Ki (hCB2R [1]; displacement of [3H]CP-55,940) [nM]	functional activity at hCB2R (agonist / inverse agonist) (hCB2R [2])	Ki (mCB1R; [4]) [nM]	also measured
CCCCCc1cc(OC)c(C2(O)C3(C)CCC(C3)C2(C)C)c(OC)c1 (single isomer, unassigned) [Compound 1a, 2-(2,6′-dimethoxy-4′-pentylphenyl)-1,3,3-trimethylbicyclo[2.2.1]heptan-2-ol]	47.7	inverse agonist	–	Ki (mCB1R; [3]): > 10000 nM; inhibition of [3H]CP-55,940 binding to mCB1R (mCB1R; in words): no measurable inhibition; EC50 (hCB2R [2]): 1.58 µM; E(max) % (hCB2R [2]): 24.08%; IC50 (hCB2R [2]; read-out: IC50, reduction of [35S]GTPγS binding in hCB2R membrane): 1.58 µM
COc1cc(C)cc(OC)c1C1(O)C2(C)CCC(C2)C1(C)C (single isomer, unassigned) [Compound 1e, 2-(2,6′-dimethoxy-4′-methylphenyl)-1,3,3-trimethylbicyclo[2.2.1]-heptan-2-ol]	–	–	–	Ki (mCB1R; read-out: Ki (nM) mCB1R): > 10000 nM
COc1cc(C)cc(OC)c1C1(O)C2(C)CCC(C2)C1(C)C (single isomer, unassigned) [Compound 1f, 2-(2,6′-dimethoxy-4′-methylphenyl)-1,3,3-trimethylbicyclo[2.2.1]-heptan-2-ol]	–	–	> 10000	Ki (hCB2R [1]): 233 nM
CCCCCCc1ccc(OC)c(C2(O)C3(C)CCC(C3)C2(C)C)c1OC (single isomer, unassigned) [Compound 2a, 2-(3′-hexyl-2,6′-dimethoxyphenyl)-1,3,3-trimethylbicyclo[2.2.1]heptan-2-ol]	224	–	> 10000	–
CCCCCCc1ccc(OC)c(C2(O)C3(C)CCC(C3)C2(C)C)c1OC (single isomer, unassigned) [Compound 2b, 2-(3′-hexyl-2,6′-dimethoxyphenyl)-1,3,3-trimethylbicyclo[2.2.1]heptan-2-ol]	73.4	weakly stimulated; also recorded: agonist	–	Ki (mCB1R; [3]): > 10000 nM; E(max) % (hCB2R [2]): 46.2%
CCCc1ccc(OC)c(C2(O)C3(C)CCC(C3)C2(C)C)c1 (single isomer, unassigned) [Compound 3a, 2-(2′-methoxy-5′-propylphenyl)-1,3,3-trimethylbicyclo[2.2.1]heptan-2-ol]	–	–	–	Ki (mCB1R; read-out: Ki (nM) mCB1R): > 10000 nM
CCCc1ccc(OC)c(C2(O)C3(C)CCC(C3)C2(C)C)c1 (single isomer, unassigned) [Compound 3b, 2-(2′-methoxy-5′-propylphenyl)-1,3,3-trimethylbicyclo[2.2.1]heptan-2-ol]	–	–	> 10000	–
CCCCCc1ccc(OC)c(C2(O)C3(C)CCC(C3)C2(C)C)c1 (single isomer, unassigned) [Compound 3c, 2-(2′-methoxy-5′-pentylphenyl)-1,3,3-trimethylbicyclo[2.2.1]heptan-2-ol]	–	–	–	Ki (mCB1R; read-out: Ki (nM) mCB1R): > 10000 nM
CCCCCc1ccc(OC)c(C2(O)C3(C)CCC(C3)C2(C)C)c1 (single isomer, unassigned) [Compound 3d, 2-(2′-methoxy-5′-pentylphenyl)-1,3,3-trimethylbicyclo[2.2.1]heptan-2-ol]	–	–	> 10000	–
CCC(C)(C)c1ccc(OC)c(C2(O)C3(C)CCC(C3)C2(C)C)c1 (single isomer, unassigned) [Compound 3e, 2-(2′-methoxy-5′-(tert-pentyl)phenyl)-1,3,3-trimethylbicyclo[2.2.1]heptan-2-ol]	–	–	–	Ki (mCB1R; read-out: Ki (nM) mCB1R): > 10000 nM
CCC(C)(C)c1ccc(OC)c(C2(O)C3(C)CCC(C3)C2(C)C)c1 (single isomer, unassigned) [Compound 3f, 2-(2′-methoxy-5′-(tert-pentyl)phenyl)-1,3,3-trimethylbicyclo[2.2.1]heptan-2-ol]	–	–	> 10000	–
CCCCCCCCc1ccc(OC)c(C2(O)C3(C)CCC(C3)C2(C)C)c1 (single isomer, unassigned) [Compound 3g, 2-(2′-methoxy-5′-octylphenyl)-1,3,3-trimethylbicyclo[2.2.1]heptan-2-ol]	–	–	–	Ki (mCB1R; read-out: Ki (nM) mCB1R): > 10000 nM
CCCCCCCCc1ccc(OC)c(C2(O)C3(C)CCC(C3)C2(C)C)c1 (single isomer, unassigned) [Compound 3h, 2-(2′-methoxy-5′-octylphenyl)-1,3,3-trimethylbicyclo[2.2.1]heptan-2-ol]	–	–	> 10000	–
CCCCCc1cc(OC)c(C2(O)C3(C)CCC(C3)C2(C)C)c(OC)c1F (single isomer, unassigned) [Compound 4a, 2-(3′-fluoro-2′,6′-dimethoxy-4′-pentylphenyl)-1,3,3-trimethylbicyclo[2.2.1]hept-an-2-ol]	–	–	–	Ki (mCB1R; [3]): > 10000 nM
CCCCCc1cc(OC)c(C2(O)C3(C)CCC(C3)C2(C)C)c(OC)c1F (single isomer, unassigned) [Compound 4b, 2-(3′-fluoro-2′,6′-dimethoxy-4′-pentylphenyl)-1,3,3-trimethylbicyclo[2.2.1]hept-an-2-ol]	–	agonist	–	Ki (mCB1R; [3]): > 10000 nM; EC50 (hCB2R [2]): 0.305 µM
CCCCCCC(C)(C)c1cc(OC)c(C2(O)C3(C)CCC(C3)C2(C)C)c(OC)c1F (single isomer, unassigned) [Compound 4c, 2-(3′-fluoro-2,6′-dimethoxy-4′-(2″-methyloctan-2″-yl)phenyl)-1,3,3-trimethyl-bicyclo[2.2.1]heptan-2-ol]	438	–	> 10000	–
CCCCCCC(C)(C)c1cc(OC)c(C2(O)C3(C)CCC(C3)C2(C)C)c(OC)c1F (single isomer, unassigned) [Compound 4d, 2-(3′-fluoro-2,6′-dimethoxy-4′-(2″-methyloctan-2″-yl)phenyl)-1,3,3-trimethyl-bicyclo[2.2.1]heptan-2-ol]	56.6	agonist	> 10000	EC50 (hCB2R [2]): 0.104 µM; E(max) % (hCB2R [2]): 118.7%
CCCCCCC(C)(C)c1cc(OC)c([C@@]2(O)C3(C)CCC(C3)C2(C)C)c(OC)c1 (stereo partly drawn) [Compound 1c, 2-(2,6′-dimethoxy-4′-(2″-methyloctan-2″-yl)phenyl)-1,3,3-trimethyl-bicyclo[2.2.1]heptan-2-ol]	56.8	agonist	> 10000	EC50 (hCB2R [2]): 0.121 µM; E(max) % (hCB2R [2]): 87.15%
CCCCCCC(C)(C)c1cc(O)c(C2(O)C3(C)CCC(C3)C2(C)C)c(OC)c1 (stereo not drawn) [Compound 5c, 2-(2′-hydroxy-6′-methoxy-4′-(2″-methyloctan-2″-yl)phenyl)-1,3,3-trimethyl-bicyclo[2.2.1]heptan-2-ol]	107	–	> 10000	–
CCCCCCC(C)(C)c1cc(OC)c([C@@H]2C=C(CO)[C@@H]3C[C@H]2C3(C)C)c(OC)c1 [HU-308, reference compound]	–	agonist	–	Ki (mCB1R): > 10000 nM; E(max) % (hCB2R [2]): 100%

— patent publication US20250002435A1, “ARYLATED FENCHONE DERIVATIVES, COMPOSITIONS COMPRISING THEM, PROCESSES FOR THEIR PREPARATION AND USES THEREOF” (priority 2021, published 2025)
